From patent US20250262272A1, “PEPTIDES AND METHODS OF USE THEREOF IN TREATING SKIN DISEASES” (Park Strategic Ventures LLC, priority 2022, published 2025) come the findings set out here.

Assay [1] deals with imiquimod induced mouse model of psoriasis. The experiment in a line: imiquimod induced mouse model of psoriasis. Format: in vivo, C57BL/6 mice. From the text:
FIG. 2A illustrates the methodological details of an imiquimod induced mouse model of psoriasis. In particular, shown is a timeline of the psoriasis induction model and application of the MARCKS inhibitor (BIO 11006) and the three different outcomes analyzed.
FIG. 2B illustrates the skin thickness in micrometers of mice administered imiquimod daily for seven (7) days in order to mimic psoriasis in one (1) test group as compared to the skin thickness in micrometers from either of two (2) control groups. The test group consisted of mice administered imiquimod daily plus intraperitoneal (ip) injection of BIO 11006 as a daily single dose on each of days 1-7. The two (2) control groups consisted of (1) mice administered vaseline and (2) mice administered imiquimod daily and phosphate buffered saline (PBS). N=6-7 mice, mean+SD, 1-way ANOVA, Tukey test.
FIG. 3 depicts images of mice the skin on the nape of the neck for the test group and two control groups described for FIG. 2B and Example 1. #1, 2 and 3 represent same treatments.
FIG. 4 illustrates the percent dryness, flakiness, skin bumps and redness the skin on the nape of the neck for the test group and two control groups described for FIG. 2B and Example 1. At a scale of 0-5, 0 indicated no visible signs or symptoms; 1-3 indicated moderate forms of the respective sign or symptom; 4-5 indicated major forms of the respective sign or symptom.
Since skin inflammation and itch are common problems, two different mouse models with inflammation and itch were developed and used for rigorous in vivo testing of the inhibition of skin inflammation and itch in response to administration of the MARCKS inhibitor BIO11006 (Ac-GAQFSKTAAK-OH; SEQ ID NO: 106). The first model is a mouse model of AD induced using MC903. The second model is a mouse model of psoriasis induced using imiquimod. Imiquimod-induced disease progression of skin inflammation and itch resemble the MC903 mouse model. As such, the same relative timeline and drug delivery was used for the psoriasis mouse model as described for MC903 mouse model with exception that the terminal day was day 7 (D7 in FIG. 2A). As outlined in FIGS. 1A and 2A, these mouse models were used to conduct a comprehensive examination of how BIO11006 spatially and kinetically changed the skin following the onset of AD-like or psoriasis-like disease symptoms by measuring skin thickness, histological, molecular analysis of inflammatory markers, and itch behavior.
Given that the significant skin inflammation was expected to start at day 5, BIO11006 (100 μM) was administered by intraperitoneal injection in three (3) different settings as described in FIG. 2A (i.e., daily single doses from Day 1 through Day 7, Days 6 and 7 or just Day 7). The skin thickness was measured at Day 0, 1, 3, 5, and 7. Additionally, the itch behavior was recorded at Day 0 and Day 7.

The subject of assay [2] is MC903 induced mouse model of atopic dermatitis (AD). The assay is described as follows: MC903 induced mouse model of atopic dermatitis (AD). Format: in vivo, C57BL/6 mice. The note with it: BIO11006 100 μM ip; day 10 only, days 9-10, days 4-10 or days 1-10. From the text: FIG. 1A illustrates the methodological details of an MC903 induced mouse model of atopic dermatitis (AD). In particular, shown is a timeline of the AD induction model and application of the MARCKS inhibitor (BIO 11006) and the three different outcomes analyzed.
FIG. 1B illustrates the skin thickness in micrometers of mice administered MC903 daily for ten (10) days in order to mimic atopic dermatitis (AD) in each of four (4) test groups as compared to the skin thickness in micrometers of mice from either of two (2) control groups. The four (4) test groups consisted of mice administered MC903 daily plus intraperitoneal (ip) injection of BIO 11006 as either (1) a single dose on day 10, (2) a single dose on each of days 9 and 10, (3) a single dose on each of days 4-10, and (4) a daily single dose on each of days 1-10. The two (2) control groups consisted of (1) mice administered the vehicle only and (2) mice administered MC903 daily and vehicle only. […]
Given that the significant skin inflammation was expected to start at day 5, BIO11006 (100 μM) was administered by intraperitoneal injection in four (4) different settings as described in FIG. 1A (i.e., daily single doses from Day 1 through Day 10, Day 4 through Day 10, Days 9 and 10 or just Day 10). The skin thickness was measured at Day 0, 1, 3, 5, 7 and 10. Additionally, the itch behavior was recorded at Day 0 and Day 10.

The mark [3] stands for this setting: BIO11006 100 μM ip daily, days 1-7, nape of the neck, scale 0-5 (FIG. 4).

Take Ac-GAQFSKTAAK-OH [BIO 11006]: in assay [1] (BIO11006 100 μM ip daily, days 1-7 (FIG. 3)), the “visible appearance of the skin on the nape of the neck” value is listed as “visible protection/improvement”. Besides, in assay [1] (setting [3]), the skin bumps entry was “significant decreases”, the skin dryness result is reported as “significant decreases”, the skin flakiness result is “significant decreases” and the skin redness entry is “significant decreases”. In addition, the skin thickness entry in assay [1] (BIO11006 100 μM ip, daily single dose days 1-7, end of the study, vs imiquimod + PBS (FIG. 2B)) is recorded as “significant decrease”. Further, in assay [2], the “results in the mouse model of AD (skin thickness, FIG. 1B)” value was “less conclusive”.
